“Also recorded” adds a separate entry of the source.
Assays:
[1] = test system: male and female adults feeling stressed on a daily basis and dissatisfied with their sleep; assay: Sleep quality evaluation test for humans (electroencephalograph SLEEPSCOPE); format: in vivo, human; conditions: 20 mg capsule daily for four weeks
Protocol: (§1) In order to examine a sleep improving effect such as a sleep quality-improving effect of a supplement containing ergothioneine, male and female adults feeling stressed on a daily basis and dissatisfied with their sleep (test food group: 46 subjects; control food group: 46 subjects; 92 subjects in total) were subjected to a placebo-controlled, randomized, double-blind, parallel-group comparative study in which one capsule containing 20 mg of L-ergothioneine (test food) or one capsule not containing L-ergothioneine (control food) was ingested daily for four weeks. The sleep quality and sleep duration were evaluated by measuring brain waves during sleep using an electroencephalograph “SLEEPSCOPE” (product name) available from SleepWell Co., Ltd. A 2-sample t-test (**: p<0.01, *: p<0.05, t: p<0.1, vs. control food group) was performed for significance testing between the groups.
Two types of food indistinguishable in terms of appearance, flavor, and the like were used for evaluation. • Test food: capsule containing a test substance (L-ergothioneine 20 mg) • Control food: capsule not containing a test substance
Each type of food for evaluation contained raw materials such as dextrin, hydroxypropyl cellulose, carrageenan, potassium chloride, and titanium oxide, in addition to the test substance. The control food was produced using the same raw materials used in the test food, except that the test substance (L-ergothioneine) was not added.
(§2) Brain waves during sleep were measured before the start of ingestion of the food for evaluation (pre-test) and after four weeks of ingestion of the food. The pre-test measurement of brain waves was regarded as “pre-examination”, and the measurement of brain waves after four weeks of ingestion of the food for evaluation was regarded as “week 4 examination”. The L-ergothioneine concentration (μM) in blood of each subject was also measured at the pre-examination and at the week 4 examination.
NREM sleep is divided into three stages 1 to 3 according to sleep depth by measuring brain waves using an electroencephalograph “SLEEPSCOPE” available from SleepWell Co., Ltd.
Ratio (%) of each sleep stage (NREM sleep stage 1, 2, or 3) to total sleep time; number of wake after sleep onset (frequency); number of wake after sleep onset in two hours before waking up (frequency), NREM sleep latency (min); 5 power in the first sleep cycle (delta power during NREM sleep in the first sleep cycle) (μV^2); and sleep efficiency (%).
FIGS. 4 to 19 show results of main evaluation items for sleep quality (ratio of total time of each sleep stage to total sleep time; number of wake after sleep onset; number of wake after sleep onset in two hours before waking up; NREM sleep latency; 5 (delta) power in the first sleep cycle, and sleep efficiency) and sleep duration, as determined by measuring brain waves. FIGS. 4 to 19 show the measured values and the amount of change between measurements at the pre-examination and at the week 4 examination (**: p<0.01, *: p<0.05, †: p<0.1, vs. control food group). The amount of change is a value obtained by subtracting the measured value at the pre-examination from the measured value at the week 4 examination (“measured value at week 4 examination”−“measured value at pre-examination”). The results shown in FIG. 4 to FIG. 20 are presented in means±standard error for each group. A 2-sample t-test (**: p<0.01, *: p<0.05, †: p<0.1, vs. control food group) was performed for significance testing between the groups. In FIG. 4, FIG. 5, FIG. 6, FIG. 8, FIG. 10, FIG. 12, FIG. 14, FIG. 16, FIG. 18, and FIG. 20, “Pre.” refers to the pre-examination, and “Post.” refers to the week 4 examination. The solid lines represent the test food group, and the dashed lines represent the control food group. In FIG. 7, FIG. 9, FIG. 11, FIG. 13, FIG. 15, FIG. 17, and FIG. 19, the black bars represent the test food group, and the white bars represent the control food group.

[2] = L-ergothioneine concentration in plasma of human subjects; format: in vivo; conditions: 20 mg capsule daily for four weeks, week 4 vs pre-examination and control food group, FIG. 20
Protocol: as §1, §2

[3] = test system: Sprague-Dawley (SD) rat; assay: Stress sleep disorder model, brain waves during sleep; format: in vivo; conditions: stress-induced rats, oral about 20 mg per 1 kg body weight per day
Protocol: The following method was used to induce stress in rats in an ergothioneine administration group (N=5) and a non-administration group (N=7). During the test period, the rats were kept under a 12-hour light-dark cycle. A Sprague-Dawley (SD) rat (8 weeks of age) was introduced into a cage where a larger and highly aggressive Brown-Norway (BN) rat was kept. These two rats were housed together for 10 minutes to make sure contact (direct contact) between the rats as the BN rat chasing after or hovering over the SD rat. Then, the SD rat and the BN rat were kept together for 24 hours in a breeding cage having compartments separated by a transparent perforated partition (indirect contact). Stress was induced in the SD rat in the same manner on the following day. A BM rat different from the one on the preceding day was used as a stressor. Stress was induced once a day for five consecutive days (from Monday to Friday), and then only indirect contact was allowed for two days on the weekend. This process was repeated for two cycles. Thus, stress induction under conditions combining direct contact and indirect contact was performed 10 times in total, and stress was induced for 12 days in total. The ergothioneine administration group was orally administered with L-ergothioneine from seven days before stress induction to the end of stress induction. L-ergothioneine was used in the form of an aqueous solution of L-ergothioneine dissolved in water (L-ergothioneine concentration: 0.25 mg/mL). The dosage of L-ergothioneine was about 20 mg per 1 kg body weight per day. The non-administration group was orally administered with water instead of the aqueous L-ergothioneine solution. The control (stress (−)) group (N=4) was orally administered with water without the stress induction. Electrodes were implanted in the rats to record brain waves, and brain waves during sleep and wakefulness were recorded for 24 hours after the end of stress induction. NREM sleep, REM sleep, and awake state were determined from the brain waves using biological signal analysis software Spike2 (available from CED), and the duration of episode of each of these states was calculated. Tukey's multiple comparisons test (*: p<0.05, **: p<0.005, ****: p<0.0001) was performed for significance testing.

[4] = light phase, vs non-administration group, FIG. 1

**Q.** With `C[N+](C)(C)[C@@H](Cc1c[nH]c(=S)[nH]1)C(=O)[O-]` [L-ergothioneine] as the molecule, how does the “number and duration of wake after sleep onset” value [1] read?
**A.** reduced the number and duration of wake after sleep onset

**Q.** And the “ratio of NREM sleep duration (total of stages 1 to 3) to total sleep time” value ([1]; vs control food group)?
**A.** increased the ratio of NREM sleep duration to total sleep time

**Q.** And the sleep latency ([1]; vs control food group)?
**A.** showed a reduced sleep latency, compared to the control food group

**Q.** And the “ratio of NREM sleep stage 1 (N1) to total sleep time” value ([1]; vs control food group, FIG. 4, 7)?
**A.** significantly suppressed

**Q.** And the “number of wake after sleep onset” value ([1]; vs control food group, FIG. 8, 9)?
**A.** significantly suppressed sleep fragmentation

**Q.** And the “number of wake after sleep onset in two hours before waking up” value ([1]; vs control food group, FIG. 10, 11)?
**A.** significantly suppressed sleep fragmentation

**Q.** What about the “NREM sleep latency (time to reach deep sleep)” value ([1]; vs control food group, FIG. 12, 13) of the same molecule?
**A.** reduced an increase in time to reach deep sleep

**Q.** And the “5 power in the first sleep cycle” value ([1]; vs control food group, FIG. 14, 15)?
**A.** increased 5 power in the first sleep cycle

**Q.** And the sleep efficiency ([1]; vs control food group, FIG. 16, 17)?
**A.** increased sleep efficiency

**Q.** What about the sleep duration ([1]; vs control food group, FIG. 18, 19) of the same molecule?
**A.** increased sleep duration

**Q.** And the “L-ergothioneine concentration in plasma” value [2]?
**A.** increased the L-ergothioneine concentration in plasma

**Q.** What about the “fragmentation in REM sleep (number of sleep fragmentation episodes)” value ([3]; light phase, FIG. 2) of the same molecule?
**A.** reduced fragmentation to a level comparable to that of the control group

**Q.** And the “duration of episode of NREM sleep (NREM)” value [3, 4]?
**A.** improved these phenomena to the level of the control group without stress induction

**Q.** What about the “duration of episode of REM sleep (REM)” value [3, 4] of the same molecule?
**A.** improved these phenomena to the level of the control group without stress induction

**Q.** And the “ratio of NREM sleep duration to total sleep time” value [3]?
**A.** increased the ratio of NREM sleep duration to total sleep time

**Q.** And the “sleep latency (latency from the start of the light phase to the first episode of NREM sleep)” value ([3]; FIG. 3)?
**A.** to a level comparable to that of control group without stress induction; also recorded: exhibited an action to reduce an increase in sleep latency

Source: patent US20230000829A1, “COMPOSITION FOR SLEEP IMPROVEMENT COMPRISING ERGOTHIONEINE OR SALT THEREOF” (priority 2019, published 2023)
